Assay results as given in patent publication US20210198277A1, “AMINE-SUBSTITUTED ARYL OR HETEROARYL COMPOUNDS” (Epizyme, Inc., priority 2016, published 2021).

What was measured:
[1] = molecular target: T1, human EHMT2 913-1193 (Homo sapiens, UniProt Q96KQ7); experiment: EHMT2 enzyme assay on histone peptide substrate (EHMT2 PEP); assay type: biochemical; details: Table III; read-out: EHMT2 PEP (IC50 μM)
T1 construct: recombinant purified human EHMT2 913-1193, Viva; purchased Viva
T1 sequence (Q96KQ7 913-1193): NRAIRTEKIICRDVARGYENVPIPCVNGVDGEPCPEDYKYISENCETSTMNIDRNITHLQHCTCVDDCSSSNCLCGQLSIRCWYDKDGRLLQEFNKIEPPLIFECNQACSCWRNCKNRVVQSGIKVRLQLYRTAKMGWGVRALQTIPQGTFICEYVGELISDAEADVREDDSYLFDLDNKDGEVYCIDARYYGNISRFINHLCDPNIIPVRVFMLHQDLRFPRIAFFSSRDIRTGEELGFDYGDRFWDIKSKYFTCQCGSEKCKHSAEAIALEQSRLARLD
In short: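 Compounds (10-point, 3-fold dilutions, top 50 μM final, 2% DMSO) preincubated 30 min with 0.031 nM EHMT2 in 20 mM Bicine pH 7.5, 0.002% Tween 20, 0.005% gelatin, 1 mM TCEP. Biotinylated histone peptide methylated with ^3H-SAM 60 min at room temperature. Quenched with unlabeled SAM; product captured on streptavidin Flashplate, scintillation counted.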

[2] = molecular target: T2, EHMT1 (Homo sapiens, UniProt Q9H9B1); experiment: EHMT1 enzyme assay on peptide substrate (EHMT1 PEP); assay type: biochemical; details: Table III; read-out: EHMT1 PEP (IC50 μM)
T2 sequence (Q9H9B1 1-1298): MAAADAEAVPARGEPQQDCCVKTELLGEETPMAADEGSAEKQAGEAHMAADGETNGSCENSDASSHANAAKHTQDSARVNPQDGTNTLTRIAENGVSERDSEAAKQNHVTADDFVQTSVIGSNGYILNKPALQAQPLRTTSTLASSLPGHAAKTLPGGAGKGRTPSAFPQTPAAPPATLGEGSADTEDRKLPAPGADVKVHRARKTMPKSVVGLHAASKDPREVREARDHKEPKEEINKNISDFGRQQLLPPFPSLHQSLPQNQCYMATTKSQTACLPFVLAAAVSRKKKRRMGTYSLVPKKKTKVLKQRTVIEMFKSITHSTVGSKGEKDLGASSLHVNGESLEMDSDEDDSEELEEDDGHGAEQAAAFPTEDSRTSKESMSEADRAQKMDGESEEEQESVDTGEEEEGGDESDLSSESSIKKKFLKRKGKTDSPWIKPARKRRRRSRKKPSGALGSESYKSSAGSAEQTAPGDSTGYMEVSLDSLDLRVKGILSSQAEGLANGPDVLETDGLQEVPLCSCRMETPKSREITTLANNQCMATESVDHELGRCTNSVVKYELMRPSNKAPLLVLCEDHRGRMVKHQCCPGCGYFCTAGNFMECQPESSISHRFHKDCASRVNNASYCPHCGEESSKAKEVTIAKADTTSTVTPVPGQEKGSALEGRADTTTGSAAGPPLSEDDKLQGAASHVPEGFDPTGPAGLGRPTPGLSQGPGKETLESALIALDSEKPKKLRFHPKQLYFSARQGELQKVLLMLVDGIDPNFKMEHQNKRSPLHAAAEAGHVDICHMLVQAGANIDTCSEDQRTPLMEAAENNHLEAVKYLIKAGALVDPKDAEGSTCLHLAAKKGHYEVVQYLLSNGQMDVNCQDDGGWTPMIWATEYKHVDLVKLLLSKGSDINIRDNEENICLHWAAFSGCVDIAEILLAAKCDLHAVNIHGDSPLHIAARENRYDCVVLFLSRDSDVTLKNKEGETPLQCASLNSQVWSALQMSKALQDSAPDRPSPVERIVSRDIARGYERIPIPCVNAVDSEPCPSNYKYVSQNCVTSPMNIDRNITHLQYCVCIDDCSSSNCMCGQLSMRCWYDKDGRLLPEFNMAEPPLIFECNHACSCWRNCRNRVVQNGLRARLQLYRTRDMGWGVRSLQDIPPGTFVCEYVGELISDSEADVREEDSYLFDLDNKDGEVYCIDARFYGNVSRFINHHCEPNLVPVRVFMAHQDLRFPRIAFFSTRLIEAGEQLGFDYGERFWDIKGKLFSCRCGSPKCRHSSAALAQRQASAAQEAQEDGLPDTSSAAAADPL

Row | SMILES | IC50 [1] | IC50 [2]
1 | COc1ccc(Nc2nccc3[nH]ncc23)cc1OCCCN1CCCC1 [Compound 373] | > 10 µM | > 10 µM
2 | COc1ccc(Nc2ccnc3[nH]ccc23)cc1OCCCN1CCCC1 [Compound 374] | 1 to 10 µM | 1 to 10 µM
3 | CC(C)Nc1ccnc(Nc2cccc(OCCCN3CC[C@@H](F)C3)c2)n1 [Compound 375] | > 10 µM | > 10 µM
4 | CNc1ccnc(Nc2ccc3ccn(CCN4CCCC4)c(=O)c3c2)n1 [Compound 381] | 1 to 10 µM | > 10 µM
5 | CNc1ccnc(Nc2cccc(COCCN3CCCC3)c2)n1 [Compound 383] | 1 to 10 µM | 1 to 10 µM
6 | CNc1cc(C#N)nc(Nc2ccc(OC)c(OCCCN3CCCC3)c2)n1 [Compound 384] | > 10 µM | > 10 µM
7 | CNc1ccnc(Nc2ccc3cnn(CCN(C)C)c3c2)n1 [Compound 386] | > 10 µM | > 10 µM
8 | CNc1ccnc(Nc2ccc3cnn(CCCN(C)C)c3c2)n1 [Compound 388, N^2-(1-(3-(dimethylamino)propyl)-1H-indazol-6-yl)-N^4-methylpyrimidine-2,4-diamine] | > 10 µM | > 10 µM
9 | CNc1ccnc(Nc2ccc3c(C)nn(CCCN(C)C)c3c2)n1 [Compound 389] | > 10 µM | > 10 µM
10 | CCNC(=O)c1cccc(Nc2nccc(NC)n2)c1 [Compound 394] | > 10 µM | > 10 µM
11 | CCNC(=O)c1cc(Nc2nccc(NC)n2)ccc1OC [Compound 395] | > 10 µM | > 10 µM
12 | CCNC(=O)c1cc(Nc2nccc(NC)n2)ccc1Cl [Compound 396] | > 10 µM | 1 to 10 µM
13 | CNc1ccnc(Nc2cccc(N3CCC(N(C)C)C3)c2)n1 (stereo not drawn) [Compound 397] | > 10 µM | > 10 µM
14 | CNc1ccnc(Nc2cccc(N3CCC(N)C3)c2)n1 (stereo not drawn) [Compound 400] | 1 to 10 µM | > 10 µM
15 | COc1ccc(Nc2ccc3cn(C)nc3n2)cc1OCCCN1CCCC1 [Compound 402] | > 10 µM | > 10 µM
16 | CNc1ccnc(Nc2ccc3cn(CCN(C)C)nc3c2)n1 [Compound 404, N^2-(2-(2-(dimethylamino)ethyl)-2H-indazol-6-yl)-N^4-methylpyrimidine-2,4-diamine] | > 10 µM | > 10 µM
17 | CNc1ccnc(Nc2ccc3cn(CCCN(C)C)nc3c2)n1 [Compound 405] | > 10 µM | > 10 µM
18 | CNc1ccnc(Nc2ccc(OC)c(OCC3CCN(CCOC)C3)c2)n1 (stereo not drawn) [Compound 410, N^2-(4-methoxy-3-((1-(2-methoxyethyl)pyrrolidin-3-yl)methoxy)phenyl)-N^4-methylpyrimidine-2,4-diamine] | 1 to 10 µM | 1 to 10 µM
19 | CCCN1CCC(COc2cc(Nc3nccc(NC)n3)ccc2OC)C1 (stereo not drawn) [Compound 420, N^2-(4-methoxy-3-((1-propylpyrrolidin-3-yl)methoxy)phenyl)-N^4-methylpyrimidine-2,4-diamine] | 0.1 to 1 µM | 0.1 to 1 µM
20 | CNc1cc(C)nc(Nc2ccc(OC)c(COC3CCN(C)C3)c2)n1 (stereo not drawn) [Compound 421, N^2-(4-methoxy-3-(((1-methylpyrrolidin-3-yl)oxy)methyl)phenyl)-N^4,6-dimethylpyrimidine-2,4-diamine] | 0.1 to 1 µM | 0.1 to 1 µM
21 | CNc1ccnc(Nc2ccc(OC)c(OCC3CCN(CC4CC4)C3)c2)n1 (stereo not drawn) [Compound 422, N^2-(3-((1-(cyclopropylmethyl)pyrrolidin-3-yl)methoxy)-4-methoxyphenyl)-N^4-methylpyrimidine-2,4-diamine] | 0.1 to 1 µM | 0.1 to 1 µM

The remaining lines, values ahead:

Row | IC50 [1] | IC50 [2] | SMILES
22 | < 0.1 µM | < 0.1 µM | CNc1cc(Nc2cc(OCCCN3CCCC3)c(OC)cn2)ccn1 [Compound 372]
23 | 0.1 to 1 µM | 0.1 to 1 µM | COc1ccc(Nc2nccc(NC(C)C3CCOCC3)n2)cc1OCCCN1CCCC1 (stereo not drawn) [Compound 378]
24 | 0.1 to 1 µM | 1 to 10 µM | CNc1ccnc(Nc2ccc(OC)c(OCCCN3CCCC3)c2)c1 [Compound 379]
25 | 0.1 to 1 µM | 0.1 to 1 µM | CNc1ccnc(Nc2ccc(OC)c(COCCN3CCCC3)c2)n1 [Compound 382]
26 | 0.1 to 1 µM | 0.1 to 1 µM | CCc1cc(NC)nc(Nc2ccc(OC)c(OCCCN3CC[C@@H](F)C3)c2)n1 [Compound 385]
27 | 0.1 to 1 µM | < 0.1 µM | CNc1ccnc(Nc2ccc(OC)c(OCCCN(C)C)c2)n1 [Compound 387]
28 | 0.1 to 1 µM | 0.1 to 1 µM | CNc1ccnc(Nc2ccc(OC)c(OCCCN3CCCCC3)c2)n1 [Compound 390]
29 | 0.1 to 1 µM | 0.1 to 1 µM | CNc1cc(C)nc(Nc2cccc(OCCCN3CCCC3)c2)n1 [Compound 391]
30 | 0.1 to 1 µM | 0.1 to 1 µM | COc1ccc(Nc2nccc(NCC(F)(F)F)n2)cc1OCCCN1CCCC1 [Compound 392]
31 | 0.1 to 1 µM | < 0.1 µM | CNc1ccnc(Nc2ccc(OC)c(OCC3CCN(C)C3)c2)n1 (stereo not drawn) [Compound 393]
32 | 0.1 to 1 µM | 0.1 to 1 µM | CNc1ccnc(Nc2ccc(Cl)c(OCCCN3CCCC3)c2)n1 [Compound 398]
33 | 0.1 to 1 µM | 0.1 to 1 µM | CNc1ccnc(Nc2ccc(OC)c(COC3CCN(C)C3)c2)n1 (stereo not drawn) [Compound 407, N^2-(4-methoxy-3-(((1-methylpyrrolidin-3-yl)oxy)methyl)phenyl)-N^4-methylpyrimidine-2,4-diamine]
34 | 0.1 to 1 µM | 0.1 to 1 µM | CCN1CCC(COc2cc(Nc3nccc(NC)n3)ccc2OC)C1 (stereo not drawn) [Compound 408, N^2-(3-((1-ethylpyrrolidin-3-yl)methoxy)-4-methoxyphenyl)-N^4-methylpyrimidine-2,4-diamine]
35 | < 0.1 µM | < 0.1 µM | CNc1ccnc(Nc2ccc(OC)c(OCC3CCN(C(C)C)C3)c2)n1 (stereo not drawn) [Compound 409, N^2-(3-((1-isopropylpyrrolidin-3-yl)methoxy)-4-methoxyphenyl)-N^4-methylpyrimidine-2,4-diamine]
36 | < 0.1 µM | < 0.1 µM | CNc1ccnc(Nc2ccc(OC)c(OCC3CCN(C4CC4)C3)c2)n1 (stereo not drawn) [Compound 411, N^2-(3-((1-cyclopropylpyrrolidin-3-yl)methoxy)-4-methoxyphenyl)-N^4-methylpyrimidine-2,4-diamine]
37 | 0.1 to 1 µM | 0.1 to 1 µM | CNc1ccnc(Nc2ccc(OC)c(OCC3CCCN(C)C3)c2)n1 (stereo not drawn) [Compound 412, N^2-(4-methoxy-3-((1-methylpiperidin-3-yl)methoxy)phenyl)-N^4-methylpyrimidine-2,4-diamine]
38 | 0.1 to 1 µM | 0.1 to 1 µM | CNc1cc(C)nc(Nc2ccc(OC)c(OCC3CCCN(C)C3)c2)n1 (stereo not drawn) [Compound 413, N^2-(4-methoxy-3-((1-methylpiperidin-3-yl)methoxy)phenyl)-N^4,6-dimethylpyrimidine-2,4-diamine]
39 | < 0.1 µM | < 0.1 µM | CNc1ccnc(Nc2ccc(OC)c(OCCCN3CC(O)C3)c2)n1 [Compound 414, 1-(3-(2-methoxy-5-((4-(methylamino)pyrimidin-2-yl)amino)phenoxy)propyl)azetidin-3-ol]
